The source of these data is PubChem BioAssay (NCI).

Each structure is given as a SMILES string.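 Dose response: 5 concentrations. Exposure: 48 h. Format: 96-well plates. Endpoint: linear interpolation; highest concentration if not reached. GI50 marks 50% less growth. TGI denotes the concentration required for complete inhibition of growth.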

Among the test systems are A549 NSCLC; KM12 colon; OVCAR-5 ovarian; OVCAR-8 ovarian; SF-268 CNS; SK-MEL-2 melanoma; UACC-257 melanoma; UO-31 renal; MOLT-4 leukemia; HOP-92 NSCLC.
What all share (experiment): inhibition of tumour cell growth, NCI panel, 48 h

For `CCCCCCCCCCCCCCCCCCOc1ccccc1COP(=O)(O)OOCC[N+](C)(C)C`, the GI50 with A549 NSCLC is 5.5 µM; in the experiment on KM12 colon, 1.01 µM; in the experiment on OVCAR-5 ovarian, 1.51 µM; in the experiment with OVCAR-8 ovarian, 1.41 µM; with SF-268 CNS, 1.55 µM; in the experiment on SK-MEL-2 melanoma, 1.71 µM. In addition, the GI50 in the experiment on UACC-257 melanoma was 1.54 µM; in the experiment on UO-31 renal, 1.27 µM. For the same compound, the TGI with A549 NSCLC was 23.6 µM; in the experiment on KM12 colon, 2.12 µM; in the experiment with OVCAR-5 ovarian it was 6.86 µM; in the experiment with OVCAR-8 ovarian, 9.22 µM; in the experiment on SF-268 CNS, 7.19 µM; in the experiment on SK-MEL-2 melanoma, 9.65 µM. The figures for the TGI in the experiment with UACC-257 melanoma and in the experiment with UO-31 renal were 6.45 µM and 6.76 µM, respectively.
For the compound `O=C1OC(c2ccccc2Br)=N/C1=C/c1ccccc1`, the TGI with A549 NSCLC was more than 100 µM; in the experiment on KM12 colon, 34 µM; in the experiment on MOLT-4 leukemia, more than 100 µM; in the experiment with OVCAR-5 ovarian it was more than 100 µM; in the experiment on OVCAR-8 ovarian it was 59.6 µM; in the experiment on SF-268 CNS, more than 100 µM. Also, the TGI in the experiment with SK-MEL-2 melanoma is 41.7 µM; in the experiment on UACC-257 melanoma it was more than 100 µM; in the experiment with UO-31 renal it was more than 100 µM.
Turning to `COC(=O)Cc1c(C2C(CC(=O)OC)c3ccccc3N2C2OC(CO)C(O)C(O)C2O)[nH]c2ccccc12` (centres undefined), the TGI with A549 NSCLC, with HOP-92 NSCLC, in the experiment on KM12 colon, with MOLT-4 leukemia, in the experiment with OVCAR-5 ovarian and with SF-268 CNS was more than 100 µM in each case. The TGI in the experiment with SK-MEL-2 melanoma, in the experiment with UACC-257 melanoma and in the experiment with UO-31 renal was more than 100 µM each time.
As for `NC(CSCSCC(N)C(=O)O)C(=O)O` (centres undefined), the TGI with A549 NSCLC is more than 225 µM; with HOP-92 NSCLC it was more than 225 µM; in the experiment with KM12 colon, more than 104 µM; in the experiment with MOLT-4 leukemia it was more than 225 µM; with OVCAR-5 ovarian, more than 225 µM; with OVCAR-8 ovarian it was more than 22.5 µM. Further, the TGI with SF-268 CNS, with SK-MEL-2 melanoma, in the experiment on UACC-257 melanoma and with UO-31 renal was more than 225 µM each time.
Consider `CC(C)(C)CI`, for which the TGI in the experiment on A549 NSCLC was 73.1 µM; with HOP-92 NSCLC, 61.4 µM; in the experiment with KM12 colon, 64.6 µM; in the experiment with MOLT-4 leukemia, 76.9 µM; with OVCAR-5 ovarian, more than 100 µM; with OVCAR-8 ovarian, more than 10 µM. Moreover, the TGI is more than 100 µM in the experiment on SF-268 CNS, 37.6 µM in the experiment on SK-MEL-2 melanoma, 51.6 µM in the experiment on UACC-257 melanoma and more than 10 µM in the experiment with UO-31 renal.
Turning to `O=c1oc2ccccc2n1P(=O)(Oc1ccc(Cl)cc1)n1c(=O)oc2ccccc21`, the TGI in the experiment on A549 NSCLC, with HOP-92 NSCLC, in the experiment on KM12 colon, in the experiment with MOLT-4 leukemia, with OVCAR-5 ovarian and in the experiment on OVCAR-8 ovarian was more than 100 µM throughout. The TGI with SF-268 CNS, in the experiment on SK-MEL-2 melanoma, in the experiment on UACC-257 melanoma and in the experiment with UO-31 renal was more than 100 µM in each case.
With `C#CCNC(=O)CC[C@@H](C)[C@H]1CC[C@H]2[C@@H]3CC[C@@H]4CC(=O)CC[C@]4(C)[C@H]3CC[C@]12C`, the GI50 is 17.4 µM in the experiment with A549 NSCLC; 2.54 µM in the experiment on HOP-92 NSCLC; 18.8 µM in the experiment with KM12 colon; 10.3 µM with MOLT-4 leukemia; 22.1 µM in the experiment on OVCAR-5 ovarian; 6.06 µM in the experiment with OVCAR-8 ovarian. In addition, the GI50 was 17.5 µM in the experiment with SF-268 CNS, 16.9 µM in the experiment on SK-MEL-2 melanoma, 13.2 µM with UACC-257 melanoma and 0.192 µM in the experiment with UO-31 renal. In addition, the TGI was more than 100 µM in the experiment on A549 NSCLC; 10.3 µM in the experiment on HOP-92 NSCLC; 70.2 µM with KM12 colon; 43.7 µM in the experiment on MOLT-4 leukemia; 47.1 µM with OVCAR-5 ovarian; 32.8 µM with OVCAR-8 ovarian. Besides, the TGI in the experiment with SF-268 CNS amounted to 44.4 µM; in the experiment on SK-MEL-2 melanoma it was 35.8 µM; in the experiment with UACC-257 melanoma, 42.3 µM; in the experiment on UO-31 renal, 0.424 µM.
Take `CC1OC(CO)(n2cnc3c(N)ncnc32)C(O)C1O` (centres undefined): the TGI in the experiment with A549 NSCLC, in the experiment on HOP-92 NSCLC, with KM12 colon, in the experiment on MOLT-4 leukemia, in the experiment with OVCAR-5 ovarian and in the experiment with OVCAR-8 ovarian was more than 100 µM in each case. Besides, the TGI in the experiment with SF-268 CNS, in the experiment with SK-MEL-2 melanoma, in the experiment on UACC-257 melanoma and with UO-31 renal was more than 100 µM in each case.
